Assay results published in ChEMBL document CHEMBL3286270, “Adenosine analogue inhibitors of S-adenosylhomocysteine hydrolase” (Bioorg Med Chem Lett, 2014).

Experiments:
Adenosylhomocysteinase [1] = target: T1, Adenosylhomocysteinase (Homo sapiens, UniProt P23526); experiment: Inhibition of recombinant human AHCY using SAH as substrate assessed as formation of homocysteine after 10 mins
Adenosylhomocysteinase [2] = target: T1, Adenosylhomocysteinase; experiment: Inhibition of AHCY in human SH-SY5Y cells assessed as formation of homocysteine after 48 hrs by HPLC analysis; type: cell-based
[3] = Clearance in rat; type: ADME, organism-based; conditions: in vivo
[4] = Clearance in dog; type: ADME, organism-based, Canis lupus familiaris; conditions: in vivo
[5] = Half life in rat; type: ADME, organism-based; conditions: in vivo
[6] = Half life in dog; type: ADME, organism-based, Canis lupus familiaris; conditions: in vivo
[7] = Oral bioavailability in rat; type: ADME, organism-based; conditions: in vivo
[8] = Oral bioavailability in dog; type: ADME, organism-based, Canis lupus familiaris; conditions: in vivo
[9] = Plasma protein binding in human; type: ADME, cell-free
[10] = Plasma protein binding in rat; type: ADME, cell-free
[11] = Solubility of the compound at pH 7; type: physicochemical; conditions: buffer

T1 sequence (P23526 whole entry): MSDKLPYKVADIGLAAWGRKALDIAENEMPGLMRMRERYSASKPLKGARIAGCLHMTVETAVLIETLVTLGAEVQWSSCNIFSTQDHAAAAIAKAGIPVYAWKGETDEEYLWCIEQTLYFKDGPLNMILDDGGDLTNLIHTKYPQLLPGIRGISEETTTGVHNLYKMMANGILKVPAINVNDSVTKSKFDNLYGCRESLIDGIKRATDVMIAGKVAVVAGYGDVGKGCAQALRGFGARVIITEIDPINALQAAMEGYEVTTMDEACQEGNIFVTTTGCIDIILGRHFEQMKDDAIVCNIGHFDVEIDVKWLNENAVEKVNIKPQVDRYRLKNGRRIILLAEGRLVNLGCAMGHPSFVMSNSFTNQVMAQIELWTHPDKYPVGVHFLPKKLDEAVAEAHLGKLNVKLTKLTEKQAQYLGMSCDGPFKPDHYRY

| IC50 (Adenosylhomocysteinase [1]) [µM] | IC50 (Adenosylhomocysteinase [2]) [µM] | SMILES | further results |
| --- | --- | --- | --- |
| 0.25 | 0.0015 | Nc1nccn2c([C@@H]3CC[C@@H](O)[C@H]3O)cnc12 | – |
| 0.195 | 0.939 | Nc1ncnc2c1ncn2[C@@H]1C=C(CCl)[C@@H](O)[C@H]1O | – |
| 9.69 | – | Nc1ncc(F)c2c1ncn2[C@@H]1C=C[C@@H](O)[C@H]1O | – |
| > 10 | 2.1 | Nc1ncnc2c1nc(Cl)n2[C@@H]1CC[C@@H](O)[C@H]1O | – |
| 0.055 | 0.0015 | Nc1ncnc2c1ncn2[C@@H]1CC[C@@H](O)[C@H]1O | – |
| 0.976 | – | Nc1ncc(F)c2c1ncn2[C@@H]1C(F)=C[C@@H](O)[C@H]1O | – |
| 0.236 | 0.036 | Cc1cnc(N)c2ncn([C@@H]3CC[C@@H](O)[C@H]3O)c12 | – |
| > 10 | > 10 | Nc1ncnc2c1nc(Br)n2[C@@H]1CC[C@@H](O)[C@H]1O | – |
| > 10 | 0.672 | Nc1ncc(F)c2c1ncn2[C@@H]1C[C@@H](F)[C@@H](O)[C@H]1O | – |
| 2.12 | 0.098 | Nc1nc(F)nc2c1ncn2[C@@H]1CC[C@@H](O)[C@H]1O | – |
| 3.64 | 0.189 | Nc1nc(F)c(F)c2c1ncn2[C@@H]1CC[C@@H](O)[C@H]1O | – |
| 1.22 | – | C[C@H]1C[C@@H](n2cnc3c(N)ncc(F)c32)[C@H](O)[C@@H]1O | – |
| 0.04 | 0.0013 | Nc1ncc(F)c2c1ncn2[C@@H]1CC[C@@H](O)[C@H]1O | clearance [3]: 21 mL/min/kg; clearance [4]: 9.6 mL/min/kg; half-life [5]: 0.9 h; half-life [6]: 3.6 h; bioavailability [7]: 86%; bioavailability [8]: > 99%; PPB [9]: < 0.1%; PPB [10]: < 0.1%; solubility [11]: > 200 uM/ml |
| 4.12 | 0.877 | Nc1ncnc2c1ncn2[C@@H]1C=C[C@@H](O)[C@H]1O | – |
| 0.455 | 0.0027 | Nc1ncc(F)c2c1ncn2[C@@H]1C(F)C[C@@H](O)[C@H]1O (mixture of isomers) | – |
| 4.83 | – | Nc1nc(F)cc2c1ncn2[C@@H]1CC[C@@H](O)[C@H]1O | – |
| 0.024 | 0.0094 | Nc1ncc(F)c2c1ncn2[C@@H]1C[C@H](O)[C@@H](O)[C@H]1O | – |
| 0.269 | 0.041 | Nc1ncc(F)c2c1ncn2[C@@H]1C[C@H](F)[C@@H](O)[C@H]1O | – |
| 0.0015 | 0.01 | Nc1ncnc2c1ncn2[C@@H]1C=C(CO)[C@@H](O)[C@H]1O [NEOPLANOCIN A] | – |
| > 10 | 0.878 | Nc1ncc(F)c2c1ncn2[C@@H]1C[C@@H](O)[C@@H](O)[C@H]1O | – |
| 0.016 | 0.0022 | Nc1ncc(Cl)c2c1ncn2[C@@H]1CC[C@@H](O)[C@H]1O | – |
| > 10 | 1.96 | Nc1ncc(F)c2c1ncn2[C@H]1[C@H](O)[C@H](O)[C@@H]2C[C@@H]21 | – |
| > 10 | > 10 | Nc1ncnc2c1nc(F)n2[C@@H]1CC[C@@H](O)[C@H]1O | – |
